Values after ≈ are worked out from the molar mass of the structure shown. Values joined by “and” are separate entries in the source; they are usually repeats but may differ in a detail not shown here. Equal values may be shown once.
Key:
S. aureus [1] = test: Minimum inhibitory concentration (MIC) assay, Example 1, S. aureus strains; format: cell-based; conditions: Staphylococcus aureus, MRSA, read-out: Mic100 S. aureus
Source text: The methicillin-resistant S. aureus (MRSA) 01 strain was used as the primary test microorganism as a representative bacteria commonly found in skin infections. This strain is a community-acquired MRSA clinical isolate of USA 300 type, from a skin abscess.
(§1) Twenty-one other MRSA and methicillin-sensitive S. aureus strains, and 4 Streptococcus pyogenes strains, were also included in the study (Table 2). These covered fusidic acid- and mupirocin-resistant strains, these two types of resistance being of clinical relevance.
(§2) Strains were conserved in Luria Bertani (LB) Broth (S. aureus) or Brain Heart Infusion (BHI) (S. pyogenes) supplemented with glycerol 15% (v/v) at −80° C., and reactivated by isolation on LB (S. aureus) or BHI (S. pyogenes) agar plates. Strains were cultivated in Mueller Hinton (MH) Broth-cation adjusted (S. aureus) supplemented with lysed horse blood 2.5% (v/v) (S. pyogenes). All strains were cultivated at 37° C., aerobically for S. aureus strains.
(§3) Bacterial cultures were stopped in their exponential growth phase and plates were inoculated with the approximate concentration of 10^3 cells per well. Plates were incubated at 37° C. for 18 hours (S. aureus) or 24 hours (S. pyogenes). Optical density at a wavelength of 600 nm was measured at the end of the incubation time. […] Experiments were performed at least as triplicate biological replicates with all strains.

S. pyogenes = test: Minimum inhibitory concentration (MIC) assay, Example 1, S. pyogenes strains; format: cell-based; conditions: Streptococcus pyogenes, read-out: Mic100 S. pyogenes
Protocol: as §1, §2, §3

[2] = tested on: MRSA 01, MRSA 15 (fusidic acid-resistant), MRSA 16 (mupirocin-resistant); test: Mutational frequency evaluation (spontaneous single-step mutations), Example 1; format: cell-based, Staphylococcus aureus; conditions: at MIC×1 (Example 1)
S. aureus [3] = test: MIC assay according to CLSI criteria, Example 2, S. aureus strains; format: cell-based, Staphylococcus aureus; conditions: Staphylococcus aureus, read-out: MIC
Source text: Chosen for its relevance regarding bacterial skin infections, the methicillin-resistant S. aureus (MRSA) 01 strain was used as the primary test microorganism. This strain is a community-acquired MRSA clinical isolate of USA 300 type, from a skin abscess.
Two-hundred-four other MRSA and methicillin-sensitive S. aureus strains, and 4 Streptococcus pyogenes strains, were also included in the study. These covered fusidic acid- and mupirocin-resistant strains, these two types of resistance being of clinical relevance.
Strains were conserved in Luria Bertani (LB) Broth (S. aureus) or Brain Heart Infusion (BHI) (S. pyogenes) supplemented with glycerol 15% (v/v) at −80° C., and reactivated by isolation on LB (S. aureus) or BHI (S. pyogenes) agar plates. Strains were cultivated in Mueller Hinton (MH) Broth-cation adjusted (S. aureus) or BHI (S. pyogenes). All strains were cultivated aerobically (microaerobically for S. pyogenes strains) at 37° C.
Bacterial cultures were stopped in their exponential growth phase and plates were inoculated with the approximate concentration of 5×10^5 cells per well. Plates were incubated at 37° C. for 18 hours (S. aureus) or 24 hours (S. pyogenes). Optical density at a wavelength of 600 nm was measured at the end of the incubation time.

[4] = published literature values; cited from earlier work

With `O=C(Nc1ccc(Oc2ccc(Cl)cc2)c(Cl)c1)c1cc(I)cc(I)c1O` [Rafoxanide, rafoxanide] the MIC (S. aureus [1]) was 0.8 µg/mL and 1.25 µM, the MIC (S. pyogenes) was 6.4 µg/mL and 10 µM and the mutational frequency [2] was 5×10^−9.
`C/C(=C\C(=O)OCCCCCCCCC(=O)O)C[C@@H]1OC[C@H](C[C@@H]2O[C@H]2[C@@H](C)[C@H](C)O)[C@@H](O)[C@H]1O` [Mupirocin, mupirocin] showed an MIC (S. aureus [3]; MRSA, strain MRSA 01) of 0.25 µg/mL (≈ 0.499 µM), an MIC (S. aureus [3]; MRSA, strain MRSA 02) of 0.25 µg/mL (≈ 0.499 µM) and an MIC (S. aureus [3]; MRSA, strain MRSA 03) of 0.25 µg/mL (≈ 0.499 µM). The MIC (S. aureus [3]; MRSA, strain MRSA 04) was 0.25 µg/mL (≈ 0.499 µM), the MIC (S. aureus [3]; MRSA, strain MRSA 05) was 0.125 µg/mL (≈ 0.25 µM) and the MIC (S. aureus [3]; MRSA, strain MRSA 06) was 0.25 µg/mL (≈ 0.499 µM). For the same molecule, the MIC (S. aureus [3]; MRSA, strain MRSA 07) was 0.25 µg/mL (≈ 0.499 µM), the MIC (S. aureus [3]; MRSA, strain MRSA 09) was 0.25 µg/mL (≈ 0.499 µM) and the MIC (S. aureus [3]; MRSA, strain MRSA 10) was 0.25 µg/mL (≈ 0.499 µM). It also gave an MIC (S. aureus [3]; MRSA, strain MRSA 11) of 0.5 µg/mL (≈ 0.999 µM), an MIC (S. aureus [3]; MRSA, strain MRSA 12) of 0.125 µg/mL (≈ 0.25 µM) and an MIC (S. aureus [3]; MRSA, strain MRSA 13) of 0.25 µg/mL (≈ 0.499 µM). The MIC (S. aureus [3]; MRSA, strain MRSA 14) was 0.125 µg/mL (≈ 0.25 µM), the MIC (S. aureus [3]; MRSA, strain MRSA 15) was 0.25 µg/mL (≈ 0.499 µM) and the MIC (S. aureus [3]; MRSA, strain MRSA 18) was 0.125 µg/mL (≈ 0.25 µM). The MIC (S. aureus [3]; MRSA, strain MRSA 19) was 0.25 µg/mL (≈ 0.499 µM), the MIC (S. aureus [3]; MRSA, strain MRSA 20) was 0.25 µg/mL (≈ 0.499 µM) and the MIC (S. aureus [3]; MRSA, strain MRSA 22) was 0.25 µg/mL (≈ 0.499 µM). It also gave an MIC (S. aureus [3]; MRSA, strain MRSA 23) of 0.25 µg/mL (≈ 0.499 µM), an MIC (S. aureus [3]; MRSA, strain MRSA 24) of 0.25 µg/mL (≈ 0.499 µM) and an MIC (S. aureus [3]; MRSA, strain MRSA 25) of 0.25 µg/mL (≈ 0.499 µM). For the same molecule, the MIC (S. aureus [3]; MRSA, strain MRSA 26) was 0.5 µg/mL (≈ 0.999 µM), the MIC (S. aureus [3]; MRSA, strain MRSA 27) was 0.25 µg/mL (≈ 0.499 µM) and the MIC (S. aureus [3]; MRSA, strain MRSA 28) was 0.5 µg/mL (≈ 0.999 µM). For the same molecule, the MIC (S. aureus [3]; MRSA, strain MRSA 29) was 0.25 µg/mL (≈ 0.499 µM), the MIC (S. aureus [3]; MRSA, strain MRSA 31) was 0.25 µg/mL (≈ 0.499 µM) and the MIC (S. aureus [3]; MRSA, strain MRSA 32) was 0.25 µg/mL (≈ 0.499 µM). The MIC (S. aureus [3]; MRSA, strain MRSA 33) was 0.25 µg/mL (≈ 0.499 µM), the MIC (S. aureus [3]; MRSA, strain MRSA 34) was 0.25 µg/mL (≈ 0.499 µM) and the MIC (S. aureus [3]; MRSA, strain MRSA 35) was 0.5 µg/mL (≈ 0.999 µM). For the same molecule, the MIC (S. aureus [3]; MRSA, strain MRSA 36) was 0.25 µg/mL (≈ 0.499 µM), the MIC (S. aureus [3]; MRSA, strain MRSA 37) was 0.25 µg/mL (≈ 0.499 µM) and the MIC (S. aureus [3]; MRSA, strain MRSA 39) was 0.25 µg/mL (≈ 0.499 µM). For the same molecule, the MIC (S. aureus [3]; MRSA, strain MRSA 40) was 0.25 µg/mL (≈ 0.499 µM), the MIC (S. aureus [3]; MRSA, strain MRSA 75) was 0.5 µg/mL (≈ 0.999 µM) and the MIC (S. aureus [3]; MRSA, strain MRSA 85) was 0.25 µg/mL (≈ 0.499 µM). The MIC (S. aureus [3]; MRSA, strain MRSA 86) was 0.25 µg/mL (≈ 0.499 µM), the MIC (S. aureus [3]; MRSA, strain MRSA 87) was 0.25 µg/mL (≈ 0.499 µM) and the MIC (S. aureus [3]; MRSA, strain MRSA 88) was 0.25 µg/mL (≈ 0.499 µM). For the same molecule, the MIC (S. aureus [3]; MRSA, strain MRSA 89) was 0.25 µg/mL (≈ 0.499 µM), the MIC (S. aureus [3]; MRSA, strain MRSA 90) was 0.25 µg/mL (≈ 0.499 µM) and the MIC (S. aureus [3]; MRSA, strain MRSA 91) was 0.25 µg/mL (≈ 0.499 µM). It also gave an MIC (S. aureus [3]; MRSA, strain MRSA 92) of 0.25 µg/mL (≈ 0.499 µM), an MIC (S. aureus [3]; MRSA, strain MRSA 93) of 0.25 µg/mL (≈ 0.499 µM) and an MIC (S. aureus [3]; MRSA, strain MRSA 94) of 0.25 µg/mL (≈ 0.499 µM). It also gave an MIC (S. aureus [3]; MRSA, strain MRSA 95) of 0.25 µg/mL (≈ 0.499 µM), an MIC (S. aureus [3]; MRSA, strain MRSA 96) of 0.125 µg/mL (≈ 0.25 µM) and an MIC (S. aureus [3]; MRSA, strain MRSA 97) of 0.25 µg/mL (≈ 0.499 µM). For the same molecule, the MIC (S. aureus [3]; MRSA, strain MRSA 98) was 0.5 µg/mL (≈ 0.999 µM), the MIC (S. aureus [3]; MRSA, strain MRSA 99) was 0.5 µg/mL (≈ 0.999 µM) and the MIC (S. aureus [3]; MRSA, strain MRSA 100) was 0.5 µg/mL (≈ 0.999 µM). For the same molecule, the MIC (S. aureus [3]; MRSA, strain MRSA 101) was 0.25 µg/mL (≈ 0.499 µM), the MIC (S. aureus [3]; MRSA, strain MRSA 102) was 0.25 µg/mL (≈ 0.499 µM) and the MIC (S. aureus [3]; MRSA, strain MRSA 103) was 0.25 µg/mL (≈ 0.499 µM). For the same molecule, the MIC (S. aureus [3]; MRSA, strain MRSA 104) was 0.25 µg/mL (≈ 0.499 µM), the MIC (S. aureus [3]; MRSA, strain MRSA 105) was 0.25 µg/mL (≈ 0.499 µM) and the MIC (S. aureus [3]; MRSA, strain MRSA 106) was 0.25 µg/mL (≈ 0.499 µM). It also gave an MIC (S. aureus [3]; MRSA, strain MRSA 107) of 0.25 µg/mL (≈ 0.499 µM), an MIC (S. aureus [3]; MRSA, strain MRSA 108) of 0.25 µg/mL (≈ 0.499 µM) and an MIC (S. aureus [3]; MRSA, strain MRSA 109) of 0.25 µg/mL (≈ 0.499 µM). It also gave an MIC (S. aureus [3]; MRSA, strain MRSA 110) of 0.125 µg/mL (≈ 0.25 µM), an MIC (S. aureus [3]; MRSA, strain MRSA 111) of 0.25 µg/mL (≈ 0.499 µM) and an MIC (S. aureus [3]; MRSA, strain MRSA 112) of 0.25 µg/mL (≈ 0.499 µM). The MIC (S. aureus [3]; MRSA, strain MRSA 113) was 0.25 µg/mL (≈ 0.499 µM), the MIC (S. aureus [3]; MSSA, strain MSSA 01) was 0.125 µg/mL (≈ 0.25 µM) and the MIC (S. aureus [3]; MSSA, strain MSSA 02) was 0.125 µg/mL (≈ 0.25 µM). For the same molecule, the MIC (S. aureus [3]; NEWMAN, strain Newman) was 0.25 µg/mL (≈ 0.499 µM).
In the case of `O=C(Nc1cc(Cl)cc(Cl)c1O)c1c(O)c(Cl)cc(Cl)c1Cl` [Oxyclozanide, oxyclozanide], the LD50 rats p.o [4] is listed as 980 to 3500 mg/kg.
In the case of `Cc1cc(C(C#N)c2ccc(Cl)cc2)c(Cl)cc1NC(=O)c1cc(I)cc(I)c1O` (stereo not drawn) [Closantel, closantel], the mutational frequency [2] is reported as 2×10^−8.

From patent publication US12036312B2, “Non-aqueous topical compositions comprising a halogenated salicylanilide” (priority 2016, dated 2024)
